{"source": "PubChem BioAssay AID2060896", "about": "(Molecular Pharmacology Branch, DTP, NCI, 2025);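 also: spheroids exposed to compounds for 7 days before readout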;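 as to viability, T/C: 100% = DMSO vehicle control viability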", "tested_on": "941728-121-R-J1-PDC complex spheroid viability", "experiment": "Anticancer human tumor 941728-121-R-J1-PDC patient-derived lung adenocarcinoma cell line growth inhibition [RAS]", "details": "for IC50: curve of first compound; for viability, T/C: stronger effect = lower value", "excerpt": "RAS pathway inhibitors in Combinations in Complex Spheroids\nA high-throughput screen of multi-cell type tumor spheroids was designed to identify active combinations of RAS pathway inhibitors and targeted small molecules. Complex spheroids include a stromal component modeled by human endothelial cells (HUVEC) and fibroblasts modeled by human mesenchymal stem cells (MSCs). The concentration ranges selected for each drug and investigational agent were based upon clinically achievable concentrations if the clinical Cmax of the agent was known.\nCompounds. The drugs and investigational agents: abemaciclib (NSC768073), cobimetinib (NSC768068), divarasib (GDC6063, NSC841802), docetaxel (NSC628503), GDC-1971 (RLY-1971, NSC841576), gemcitabine (NSC613327), inavolisib (NSC800729), ipatasertib (NSC767898), KB-0742 (NSC834161), MRTX-1133 (NSC836407), osimertinib (NSC779217), RMC-4630 (NSC839698), RMC-6236 (NSC851965), RMC-6291 (NSC852671), Ro-3306 (NSC812927), sapanisertib (NSC764658), SN-38 (NSC673596), staurosporine (NSC755774), SY5609 (NSC837396), and tovorafenib (DAY101, NSC766906), were obtained from the National Cancer Institute (NCI) Developmental Therapeutics Program Chemical Repository. The FDA-approved anticancer drug set is available from the NCI Developmental Therapeutics Program. […] The stock solutions were prepared in dimethyl sulfoxide (DMSO, Sigma-Aldrich, St. Louis, MO, cat. D2650) at 800-fold the tested concentration and stored at -70 degrees C prior to their use. All drugs and investigational agents were tested over a range starting from a high concentration at or near the clinical Cmax and decreasing in half-log increments. If the clinical Cmax for an agent had not been determined, the highest concentration tested was 10 microM.\nCell Culture. All cells were maintained in an incubator at 37 degrees C and 5% CO2 with 95% humidity. The PDC lines were cultured according to standard operating procedures established by the NCI PDMR. All PDCs were thawed and cultured in Matrigel-coated flasks prepared with a working solution of 1X Ham's F-12 nutrient mix, without supplementation (Invitrogen, Waltham, MA, cat. 11765054), 100 U/mL penicillin-streptomycin (Invitrogen, cat. 15140122), and 2.5% Matrigel (Corning Inc., Corning, NY, cat. 354248) for the first three passages. The 362531-283-R-J2-PDC and 782815-120-R-J1-PDC lines were cultured in 6C/Colon 1B media, which includes advanced DMEM/F-12 (Thermo Fisher Scientific, cat. 12634028), 10 mM HEPES (Thermo Fisher Scientific, cat. 15630080), 1X GlutaMAX supplement (Thermo Fisher Scientific, cat. 35050061), 0.1 mg/mL primocin (InvivoGen, San Diego, CA, cat. ant-pm-2), 10% defined fetal bovine serum, heat inactivated (HyClone Laboratories Inc., Logan, UT, cat. SH30070.03HI), 50% L-WRN conditioned media (ATCC, cat. CRL-3276), 1.25 mM N-Acetyl-L-cysteine (Sigma-Aldrich, cat. A9165), 10 mM nicotinamide (Sigma-Aldrich, cat. N0636), 1X B-27 supplement (Thermo Fisher Scientific, cat. 17504044), 1X N-2 supplement (Thermo Fisher Scientific, cat. 17502048), 50 ng/mL human EGF (Thermo Fisher Scientific, cat. PHG0311), and 10 microM Y-27632 dihydrochloride (Tocris Bioscience, cat. 1254). The K12877-001-R-J1-PDC line was cultured in 6I media, which includes all 6C/Colon 1B media plus 10 ng/mL human FGF-10 (PeproTech, cat. 100-26), 1 ng/mL human FGF-2 (PeproTech, cat. 100-18B), 1 µM prostaglandin E2 (Tocris Bioscience, cat. 2296), […] hydrocortisone (Sigma-Aldrich, cat. H4001), and […] bovine insulin (Sigma-Aldrich, cat. I6634). The K86415-001-R-J1-PDC line was cultured in 6D media, which includes all 6C/Colon 1B media components minus the L-WRN conditioned media. The 485176-168-R4-J1-PDC was cultured in PANC media, which includes all 6C/Colon 1B media plus 100 ng/mL human FGF-10 (PeproTech, cat. 100-26), 500 nM SB-431542 (Selleckchem, cat. S1067), and 10 nM gastrin (Tocris Bioscience, cat. 3006). […]"}
{"smiles": "CC(C)NCC(C(=O)N1CCN(c2ncnc3c2C(C)CC3O)CC1)c1ccc(Cl)cc1", "note": "(configuration not stated) + C#Cc1c(F)ccc2cc(O)cc(-c3ncc4c(N5CC6CCC(C5)N6)nc(OCC56CCCN5CC(F)C6)nc4c3F)c12", "values": [{"measurement": "IC50", "setting": "second compound 0.0316 µM", "result": 1040, "unit": "nM"}, {"measurement": "IC50", "setting": "second compound 0.1 µM", "result": 972, "unit": "nM"}, {"measurement": "IC50", "setting": "second compound 0.316 µM", "result": 422, "unit": "nM"}, {"measurement": "IC50", "setting": "second compound 1 µM", "result": "< 31.6", "unit": "nM"}, {"measurement": "IC50", "setting": "second compound 3.16 µM", "result": "< 31.6", "unit": "nM"}, {"measurement": "IC50", "setting": "second compound 10 µM", "result": "< 31.6", "unit": "nM"}, {"measurement": "viability, T/C", "setting": "second compound 0.0316 µM, first compound 0.0316 µM", "result": 102, "unit": "%"}, {"measurement": "viability, T/C", "setting": "second compound 0.0316 µM, first compound 0.1 µM", "result": 79.8, "unit": "%"}, {"measurement": "viability, T/C", "setting": "second compound 0.0316 µM, first compound 0.316 µM", "result": 63.7, "unit": "%"}, {"measurement": "viability, T/C", "setting": "second compound 0.0316 µM, first compound 1 µM", "result": 51.8, "unit": "%"}, {"measurement": "viability, T/C", "setting": "second compound 0.0316 µM, first compound 3.16 µM", "result": 38.7, "unit": "%"}, {"measurement": "viability, T/C", "setting": "second compound 0.0316 µM, first compound 10 µM", "result": 34.8, "unit": "%"}, {"measurement": "viability, T/C", "setting": "second compound 0.1 µM, first compound 0.0316 µM", "result": 79.9, "unit": "%"}, {"measurement": "viability, T/C", "setting": "second compound 0.1 µM, first compound 0.1 µM", "result": 70.9, "unit": "%"}, {"measurement": "viability, T/C", "setting": "second compound 0.1 µM, first compound 0.316 µM", "result": 61.6, "unit": "%"}, {"measurement": "viability, T/C", "setting": "second compound 0.1 µM, first compound 1 µM", "result": 50, "unit": "%"}, {"measurement": "viability, T/C", "setting": "second compound 0.1 µM, first compound 3.16 µM", "result": 39.3, "unit": "%"}, {"measurement": "viability, T/C", "setting": "second compound 0.1 µM, first compound 10 µM", "result": 33.4, "unit": "%"}, {"measurement": "viability, T/C", "setting": "second compound 0.316 µM, first compound 0.0316 µM", "result": 56.6, "unit": "%"}, {"measurement": "viability, T/C", "setting": "second compound 0.316 µM, first compound 0.1 µM", "result": 59.2, "unit": "%"}, {"measurement": "viability, T/C", "setting": "second compound 0.316 µM, first compound 0.316 µM", "result": 52, "unit": "%"}, {"measurement": "viability, T/C", "setting": "second compound 0.316 µM, first compound 1 µM", "result": 42.1, "unit": "%"}, {"measurement": "viability, T/C", "setting": "second compound 0.316 µM, first compound 3.16 µM", "result": 35, "unit": "%"}, {"measurement": "viability, T/C", "setting": "second compound 0.316 µM, first compound 10 µM", "result": 26.9, "unit": "%"}, {"measurement": "viability, T/C", "setting": "second compound 1 µM, first compound 0.0316 µM", "result": 39.3, "unit": "%"}, {"measurement": "viability, T/C", "setting": "second compound 1 µM, first compound 0.1 µM", "result": 39.4, "unit": "%"}, {"measurement": "viability, T/C", "setting": "second compound 1 µM, first compound 0.316 µM", "result": 35, "unit": "%"}, {"measurement": "viability, T/C", "setting": "second compound 1 µM, first compound 1 µM", "result": 30.9, "unit": "%"}, {"measurement": "viability, T/C", "setting": "second compound 1 µM, first compound 3.16 µM", "result": 22.9, "unit": "%"}, {"measurement": "viability, T/C", "setting": "second compound 1 µM, first compound 10 µM", "result": 21.1, "unit": "%"}, {"measurement": "viability, T/C", "setting": "second compound 3.16 µM, first compound 0.0316 µM", "result": 32, "unit": "%"}, {"measurement": "viability, T/C", "setting": "second compound 3.16 µM, first compound 0.1 µM", "result": 30.4, "unit": "%"}, {"measurement": "viability, T/C", "setting": "second compound 3.16 µM, first compound 0.316 µM", "result": 28.7, "unit": "%"}, {"measurement": "viability, T/C", "setting": "second compound 3.16 µM, first compound 1 µM", "result": 24.9, "unit": "%"}, {"measurement": "viability, T/C", "setting": "second compound 3.16 µM, first compound 3.16 µM", "result": 24.6, "unit": "%"}, {"measurement": "viability, T/C", "setting": "second compound 3.16 µM, first compound 10 µM", "result": 17.3, "unit": "%"}, {"measurement": "viability, T/C", "setting": "second compound 10 µM, first compound 0.0316 µM", "result": 25.4, "unit": "%"}, {"measurement": "viability, T/C", "setting": "second compound 10 µM, first compound 0.1 µM", "result": 23.5, "unit": "%"}, {"measurement": "viability, T/C", "setting": "second compound 10 µM, first compound 0.316 µM", "result": 22.3, "unit": "%"}, {"measurement": "viability, T/C", "setting": "second compound 10 µM, first compound 1 µM", "result": 21.6, "unit": "%"}, {"measurement": "viability, T/C", "setting": "second compound 10 µM, first compound 3.16 µM", "result": 17.1, "unit": "%"}, {"measurement": "viability, T/C", "setting": "second compound 10 µM, first compound 10 µM", "result": 11.2, "unit": "%"}]}
